Measurements taken from patent US20210315893A1 (Galapagos NV, priority 2017, published 2021).
pEC50: −log10 of the molar value.

Key:
[1] = biological target: T1, human GPCR sphingosine 1-phosphate receptor 5 (Homo sapiens, UniProt Q9H228); experiment: S1PR5 selectivity Ca2+ flux assay (antagonist readout); format: cell-based; settings: CHO cells overexpressing human S1PR5 and Gq, agonist at EC80 (20 nM), read-out: S1P5 EC50 (nM), S1P5 antagonist EC50
T1 construct: host or cells: CHO
Procedure, shortened: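 CHO cells stably coexpressing human S1PR5 and Gq were serum-starved, Fluo 8-loaded and preincubated 15 min at 37° C with compound. They were then stimulated at EC80 with an S1PR5-specific agonist, and calcium fluorescence was recorded for 3 min. Peak/baseline ratios were normalized to controls and fitted to a four-parameter IC50 equation.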

[2] = biological target: T2, human GPCR sphingosine 1-phosphate receptor 1 (Homo sapiens, UniProt P21453); experiment: S1PR1 selectivity Ca2+ flux assay (antagonist readout); format: cell-based; settings: antagonist readout, CHO cells overexpressing human S1PR1 and Gq, S1P at EC80 (6 nM); read-out: S1P1 EC50 (nM), S1P1 antagonist EC50
T2 construct: host or cells: CHO
Procedure, shortened: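 CHO cells stably overexpressing human S1PR1, starved 1 h in 0.1% FAF BSA medium, then Fluo 8 dye-loaded. Compound added, then after 15 min at 37 °C, S1P-evoked Ca2+ flux recorded. Maximal signal/background ratio normalized to controls as % inhibition; IC50 from four-parameter logistic fit.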

[3] = biological target: T3, S1PR2 (Homo sapiens, UniProt O95136); experiment: S1PR2 binding assay (competition with radioactively labeled S1P, SpA); settings: membranes from stable cell line over expressing S1PR2, SpA beads; read-out: S1P2 EC50 (nM), S1PR2 binding EC50
T3 construct: expressed in transfected cells
Procedure, shortened: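 Competition with [3H]S1P for membranes from a stable S1PR2-overexpressing cell line, 20 μg/well, captured on PVT-WGA SPA beads, in 20 mM Tris pH 7.5, 10 mM MgCl2, 100 mM NaCl, 0.4% fatty-acid-free BSA, 1 mM Na3VO4. 2 h at room temperature, then centrifugation and scintillation counting.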

[4] = biological target: T4, human GPCR sphingosine 1-phosphate receptor 2 (Homo sapiens, UniProt O95136); experiment: S1PR2 antagonist Ca2+ flux assay; format: cell-based; settings: antagonist mode, CHO-S1PR2 cells, S1P at EC80, Ca2+ fluorescence; read-out: S1P2 EC50 (nM), S1P2 antagonist EC50
T4 construct: host or cells: CHO
Procedure, shortened: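 CHO cells stably expressing human S1PR2, serum-starved 1 h, Fluo8-loaded; compound-evoked Ca2+ fluorescence read 3 min (agonist mode), then after 15 min S1P at EC80 added and read 3 min (antagonist mode). Max/baseline fluorescence ratios normalised to vehicle and S1P EC100 or EC50 controls; EC50 derived.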

[5] = system: HFL-1 cells; experiment: IL-8 production assay (S1P induced IL-8); format: cell-based; settings: Homo sapiens, HFL1; S1P (1 μM) induced IL-8 in HFL-1 cells, starvation medium without HSA; read-out: IL8 EC50
Procedure, shortened: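 HFL-1 human fetal lung fibroblasts were starved in F12K/1% FBS, then given compound for 1 h (10-point, 1/3 dilution, 30 μM top, 0.3% DMSO final). S1P was added at 1 μM final for 16–24 h at 37 °C, and secreted IL-8 in supernatant quantified by ELISA.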

[6] = system: HFL-1 cells; experiment: IL8 assay in the presence of Human Serum Albumin; settings: HFL1, read-out: HSA IL8 EC50

T4 sequence (O95136 whole entry): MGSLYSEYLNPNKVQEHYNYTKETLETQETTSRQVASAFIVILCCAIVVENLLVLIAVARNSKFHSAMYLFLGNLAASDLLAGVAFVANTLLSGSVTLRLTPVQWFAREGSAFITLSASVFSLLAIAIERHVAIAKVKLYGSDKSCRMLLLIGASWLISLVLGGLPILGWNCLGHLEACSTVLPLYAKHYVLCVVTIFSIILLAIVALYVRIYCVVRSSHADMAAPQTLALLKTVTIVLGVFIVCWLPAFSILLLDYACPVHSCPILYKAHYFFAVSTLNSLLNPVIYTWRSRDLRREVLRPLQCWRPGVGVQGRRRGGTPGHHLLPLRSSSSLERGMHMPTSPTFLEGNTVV
T3 sequence (O95136 whole entry): as above
T2 sequence (P21453 whole entry): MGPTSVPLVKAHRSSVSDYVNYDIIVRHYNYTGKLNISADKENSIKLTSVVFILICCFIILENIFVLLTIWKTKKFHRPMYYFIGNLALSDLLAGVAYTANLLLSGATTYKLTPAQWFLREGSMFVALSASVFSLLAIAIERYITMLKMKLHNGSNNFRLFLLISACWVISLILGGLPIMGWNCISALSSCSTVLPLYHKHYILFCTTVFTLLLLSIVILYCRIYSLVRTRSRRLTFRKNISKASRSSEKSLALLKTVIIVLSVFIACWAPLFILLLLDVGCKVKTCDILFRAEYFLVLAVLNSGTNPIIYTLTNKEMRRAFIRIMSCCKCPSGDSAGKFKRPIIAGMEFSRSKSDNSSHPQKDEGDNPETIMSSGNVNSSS
T1 sequence (Q9H228 whole entry): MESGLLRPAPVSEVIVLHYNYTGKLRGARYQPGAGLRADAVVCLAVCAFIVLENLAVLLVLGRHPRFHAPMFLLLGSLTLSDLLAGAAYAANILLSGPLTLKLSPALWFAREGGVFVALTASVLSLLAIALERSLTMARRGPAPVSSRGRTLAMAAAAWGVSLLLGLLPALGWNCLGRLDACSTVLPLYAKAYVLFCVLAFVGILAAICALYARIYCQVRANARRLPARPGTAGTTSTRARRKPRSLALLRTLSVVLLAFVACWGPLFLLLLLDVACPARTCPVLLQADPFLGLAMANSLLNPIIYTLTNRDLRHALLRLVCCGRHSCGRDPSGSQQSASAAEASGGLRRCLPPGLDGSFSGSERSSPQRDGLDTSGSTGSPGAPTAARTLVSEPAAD

| SMILES | EC50 [1] | EC50 [2] | EC50 [3] | EC50 [4] | pEC50 [5] | pEC50 [6] |
| --- | --- | --- | --- | --- | --- | --- |
| N#Cc1cc2[nH]c(Cc3nn(CC(=O)N4CCC(O)C(F)(F)C4)c(=O)c4ccccc34)nc2cc1OCC(F)F (stereo not drawn) [Compound 212] | 19800 nM | ≥ 19800 nM | 65.6 nM | 19.2 nM | 7.98 | 7.19 |
| N#Cc1cc2[nH]c(Cc3nn(CC(=O)N4CCC(O)(C5CC5)CC4)c(=O)c4ccccc34)nc2cc1OCC(F)F [Compound 213, 2-[[3-[2-(4-cyclopropyl-4-hydroxy-1-piperidyl)-2-oxo-ethyl]-4-oxo-phthalazin-1-yl)methyl]-6-(2,2-difluoroethoxy)-3H-benzimidazole-5-carbonitrile] | 19800 nM | ≥ 19800 nM | 159 nM | 41.4 nM | 7.15 | 6.75 |
| N#Cc1cc2[nH]c(Cc3nn(CC(=O)N4CCC(O)(C5CC5)C4)c(=O)c4ccccc34)nc2cc1OCC(F)F (stereo not drawn) [Compound 214, 2-[[3-[2-(3-cyclopropyl-3-hydroxy-pyrrolidin-1-yl)-2-oxo-ethyl]-4-oxo-phthalazin-1-yl]methyl]-6-(2,2-difluoroethoxy)-3H-benzimidazole-5-carbonitrile] | 19800 nM | ≥ 19800 nM | 124 nM | 34.6 nM | 8.15 | 7.48 |
| N#Cc1cc2[nH]c(Cc3nn(CC(=O)N4CCC(O)(C(F)(F)F)C4)c(=O)c4ccccc34)nc2cc1OCC(F)F (stereo not drawn) [Compound 216, 6-(2,2-difluoroethoxy)-2-[[3-[2-[3-hydroxy-3-(trifluoromethyl)pyrrolidin-1-yl]-2-oxo-ethyl]-4-oxo-phthalazin-1-yl]methyl]-3H-benzimidazole-5-carbonitrile] | 19800 nM | ≥ 19800 nM | 44.7 nM | 13 nM | 7.91 | 7.80 |
| O=C(Cc1nn(Cc2nc3cc(OCC4CC4)c(Br)cc3[nH]2)c2ccccc2c1=O)N1C[C@H](O)[C@@H](O)C1 [Compound 217, 1-[[6-bromo-5-(cyclopropylmethoxy)-1H-benzimidazol-2-yl]methyl]-3-[2-[(3S,4S)-3,4-dihydroxypyrrolidin-1-yl]-2-oxo-ethyl]cinnolin-4-one] | 19800 nM | 698 nM | 2.58 nM | 2.23 nM | 10.40 | 8.87 |
| N#Cc1cc2[nH]c(Cc3nn(CC(=O)N4CCN(CC5CC5)CC4)c(=O)c4ccccc34)nc2cc1OCC(F)F [Compound 218, 2-[[3-[2-[4-(cyclopropylmethyl)piperazin-1-yl]-2-oxo-ethyl]-4-oxo-phthalazin-1-yl]methyl]-6-(2,2-difluoroethoxy)-3H-benzimidazole-5-carbonitrile] | 19800 nM | ≥ 19800 nM | 526 nM | 1410 nM | 6.82 | 4.82 |
| CC1(C)CN(C(=O)Cn2nc(Cc3nc4cc(OCC(F)F)c(C#N)cc4[nH]3)c3ccccc3c2=O)CCO1 [Compound 227, 6-(2,2-difluoroethoxy)-2-[[3-[2-(2,2-dimethylmorpholin-4-yl)-2-oxo-ethyl]-4-oxo-phthalazin-1-yl]methyl]-3H-benzimidazole-5-carbonitrile] | 19800 nM | ≥ 19800 nM | 82.1 nM | 14.5 nM | 7.77 | 7.07 |
| CC1(C)CCN(C(=O)Cn2nc(Cc3nc4cc(OCC(F)F)c(C#N)cc4[nH]3)c3ccccc3c2=O)CC1 [Compound 234, 6-(2,2-difluoroethoxy)-2-[[3-[2-(4,4-dimethyl-1-piperidyl)-2-oxo-ethyl]-4-oxo-phthalazin-1-yl]methyl]-3H-benzimidazole-5-carbonitrile] | 19800 nM | ≥ 19800 nM | 270 nM | 13 nM | 7.47 | 6.42 |
| CS(=O)(=O)NC(=O)Cn1nc(Cc2nc3cc(OCC4CC4)c(Cl)cc3[nH]2)c2ccccc2c1=O [Compound 242, 2-[4-[[6-chloro-5-(cyclopropylmethoxy)-1H-benzimidazol-2-yl]methyl]-1-oxo-phthalazin-2-yl]-N-methylsulfonyl-acetamide] | 19800 nM | 560 nM | 299 nM | 19.2 nM | 7.11 | 6.96 |
| CS(=O)(=O)NC(=O)Cn1nc(Cn2cc3cc(OCC4CC4)c(Cl)cc3n2)c2ccccc2c1=O [Compound 243, 2-[4-[[6-chloro-5-(cyclopropylmethoxy)indazol-2-yl]methyl]-1-oxo-phthalazin-2-yl]-N-methylsulfonyl-acetamide] | 19800 nM | ≥ 19800 nM | 400 nM | 9 nM | 6.12 | 5.59 |
| O=C(Cn1nc(Cn2cc3cc(OCC4CC4)c(Cl)cc3n2)c2ccccc2c1=O)NS(=O)(=O)C1CC1 [Compound 244, 2-[4-[[6-chloro-5-(cyclopropylmethoxy)indazol-2-yl]methyl]-1-oxo-phthalazin-2-yl]-N-cyclopropylsulfonyl-acetamide] | 19800 nM | ≥ 19800 nM | 136 nM | 8.29 nM | 7.67 | 6.09 |
| N#Cc1cc2[nH]c(Cc3nn(CC(=O)O)c(=O)c4ccccc34)nc2cc1OCC1CC1 [compound 7, 2-[4-[[6-cyano-5-(cyclopropyl-methoxy)-1H-benzimidazol-2-yl]methyl]-1-oxo-phthalazin-2-yl]acetic acid] | 19800 nM | ≥ 19800 nM | 50.3 nM | 8.26 nM | 8.44 | 7.95 |
| N#Cc1cc2nn(Cc3nn(CC(=O)O)c(=O)c4ccccc34)cc2cc1OCC(F)F [compound 8, 2-[4-[[6-cyano-5-(2,2-difluoro-ethoxy)indazol-2-yl]methyl]-1-oxo-phthalazin-2-yl]acetic acid] | 19800 nM | ≥ 19800 nM | 2490 nM | 10700 nM | 6.21 | 5.00 |
| N#Cc1cc2[nH]c(Cn3nc(CC(=O)N4C[C@H](O)[C@@H](O)C4)c(=O)c4ccccc43)nc2cc1OCC1CC1 [compound 10, 6-(cyclopropyl-methoxy)-2-[[3-[2-[(3S,4S)-3,4-dihydroxy-pyrrolidin-1-yl]-2-oxo-ethyl]-4-oxo-cinnolin-1-yl]methyl]-3H-benzimidazole-5-carbonitrile] | 19800 nM | ≥ 19800 nM | 11.6 nM | 4.55 nM | 9.25 | 8.50 |
| O=C(Cn1nc(Cc2cc3cc(Cl)c(OCC(F)F)cc3[nH]2)c2ccccc2c1=O)N1CCOCC1 [compound 11, 4-[[5-chloro-6-(2,2-difluoro-ethoxy)-1H-indol-2-yl]-methyl]-2-(2-morpholino-2-oxo-ethyl)-phthalazin-1-one] | 19800 nM | ≥ 19800 nM | 324 nM | 80 nM | 7.22 | 6.16 |
| NC(=O)c1ccc2c(=O)n(CC(=O)N3CCOCC3)nc(Cc3nc4cc(OCC(F)F)c(Cl)cc4[nH]3)c2c1 [compound 12, 4-[[6-chloro-5-(2,2-difluoro-ethoxy)-1H-benzimidazol-2-yl]methyl]-2-(2-morpholino-2-oxo-ethyl)-1-oxo-phthalazine-6-carboxamide] | 19800 nM | ≥ 19800 nM | 582 nM | 276 nM | 6.84 | 5.96 |
| N#Cc1cc2[nH]c(Cc3nn(CC(=O)N4CC[C@H](O)C4)c(=O)c4ccccc34)nc2cc1OCC(F)F [compound 13, 6-(2,2-difluoro-ethoxy)-2-[[3-[2-[(3S)-3-hydroxy-pyrrolidin-1-yl]-2-oxo-ethyl]-4-oxo-phthalazin-1-yl]methyl]-3H-benzimidazole-5-carbonitrile] | 19800 nM | ≥ 19800 nM | 221 nM | 120 nM | 6.98 | 6.60 |
